From ChEMBL document CHEMBL2406956, “Discovery and optimisation of 1-hydroxyimino-3,3-diphenylpropanes, a new class of orally active GPBAR1 (TGR5) agonists” (Bioorg Med Chem Lett, 2013)

Legend:
[1] = 1-octanol-aqueous buffer distribution coefficient, log D of the compound at 0.5 mM at pH 7.4 after 2 hrs by shake flask method; type: physicochemical
[2] = Oral bioavailability in C57Bl/6 DIO mouse at 30 mg/kg; type: ADME, organism-based; details: in vivo
[3] = Cmax in C57Bl/6 DIO mouse at 30 mg/kg, po; type: ADME, organism-based; set-up: dose 30 mg/kg, route oral; details: in vivo
[4] = Volume of distribution at steady state in C57Bl/6 DIO mouse at 1 mg/kg, iv; type: ADME, organism-based; set-up: dose 1 mg/kg, route intravenous; details: in vivo, read-out: Vdss
[5] = Half life in C57Bl/6 DIO mouse at 1 mg/kg, iv; type: ADME, organism-based; set-up: dose 1 mg/kg, route intravenous; details: in vivo
[6] = Clearance in C57Bl/6 DIO mouse at 1 mg/kg, iv; type: ADME, organism-based; set-up: dose 1 mg/kg, route intravenous; details: in vivo
[7] = Oral bioavailability in C57Bl/6 DIO mouse at 49 mg/kg; type: ADME, organism-based; details: in vivo
[8] = Oral bioavailability in C57Bl/6 DIO mouse at 22 mg/kg; type: ADME, organism-based; details: in vivo
[9] = Cmax in C57Bl/6 DIO mouse at 22 mg/kg, po; type: ADME, organism-based; set-up: dose 22 mg/kg, route oral; details: in vivo
[10] = Stability of the compound in aqueous solution assessed as recovery at pH 1 to 10 after 2 hrs; type: physicochemical; details: read-out: Drug recovery
Plasma = test: Plasma concentration in C57Bl/6 DIO mouse at 50 to 100 mg/kg, po; type: ADME, organism-based; set-up: dose 50-100 mg/kg, route oral; details: in vivo
[11] = Oral bioavailability in C57Bl/6 DIO mouse at 23 mg/kg; type: ADME, organism-based; details: in vivo

Structure (SMILES)	logD at 2 h, 500 µM [1]	Vd [4]	half-life [5]	clearance [6]	other results
Cc1cc(/C(C[C@@H](c2ccc(-c3ccc(C(=O)O)cc3)cc2)c2ccccc2C)=N/O)ccn1	2.7				
Cc1cc(/C(C[C@H](c2ccc(N3CCC(C(=O)O)CC3)cc2)c2ccccc2C)=N/O)ccn1	1.5	0.4 L/kg	1.7 h	5 mL/min/kg	bioavailability [2]: 100%; Cmax [3]: 41000 ng/mL
Cc1cc(/C(C[C@@H](c2ccc(N3CCC(C(=O)O)CC3)cc2)c2ccccc2C)=N/O)ccn1	1.6				
Cc1ccccc1[C@H](C/C(=N\O)c1ccc(=O)n(C)c1)c1ccc(-c2ccc(C(=O)O)cc2)cc1	1.3	0.5 L/kg	0.7 h	5 mL/min/kg	bioavailability [7]: 67%
Cc1ccccc1[C@@H](C/C(=N\O)c1ccc(=O)n(C)c1)c1ccc(-c2ccc(C(=O)O)cc2)cc1	1.5				
Cc1ccccc1[C@H](C/C(=N\O)c1ccc(=O)n(C)c1)c1ccc(S(C)(=O)=O)cc1	1.7	3.3 L/kg	2.2 h	67 mL/min/kg	bioavailability [8]: 29%; Cmax [9]: 870 ng/mL
Cc1ccccc1[C@@H](C/C(=N\O)c1ccc(=O)n(C)c1)c1ccc(S(C)(=O)=O)cc1	1.9				
CN(C)c1ccc(C(C/C(=N\O)c2ccncc2)c2ccccc2)cc1 (stereo not given)	3.4				remaining at 2 h [10]: > 90%
Cc1cc(/C(CC(c2ccc(Br)cc2)c2ccccc2C)=N/O)ccn1 (stereo not given)	> 4				
Cc1cc(/C(C[C@H](c2ccc(-c3ccc(C(=O)O)cc3)cc2)c2ccccc2C)=N/O)ccn1	2.7	0.5 L/kg	0.3 h	15 mL/min/kg	Cp (Plasma): 31500 ng/mL; bioavailability [11]: 80%
